The values that follow come from patent publication US20050136444A1 (priority 2003, published 2005).

The target in one data set is T1, NPFF2 (Homo sapiens, UniProt Q9Y5X5).
T1 construct: expressed in transfected cells; host or cells: NIH3T3
As to the kind of experiment: Receptor Selection and Amplification Technology (R-SAT) functional assay, NPFF2. It is filed as cell-based. The settings on record: for NPFF2b % Efficacy Mean: Hydrochloride. The procedure, abridged: (§1)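 NIH3T3 cells transiently transfected for 16-20 h with receptor and β-galactosidase plasmids, then grown with compound for five days at 5% CO2. Functional response read as β-galactosidase activity with ONPG substrate, colorimetric absorbance at 420 nm.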

The next data set has as its system rats. As to the kind of experiment: Observed behaviors / side effects after systemic administration. The class given is in vivo, rat. As for the experimental part:
These behaviors typically precede “barrel-rolling” seizures.
These effects persisted between 15 and 20 minutes. These effects were not observed in rats that received doses less than 10 mg/kg.
These effects persisted between 15 and 20 minutes and were shown by both sham-operated and SNL rats. These effects were not observed in rats that received doses less than 10 mg/kg. [drawing 22]
However, these effects were more robust and of longer duration (60-90 min).
These effects persisted between 60 and 90 minutes and were shown by both sham-operated and SNL rats. These effects were not observed in rats that received doses less than 10 mg/kg. [drawing 23]
A model of neuropathic pain was created in rats by tight ligation of the L5 and L6 spinal nerves. […] Rats were then treated with various doses of dPQR (3, 10 and 30 mg/kg, i.p.) and paw withdrawal thresholds were tested across a period of 3 hours.
A model of neuropathic pain was created in rats by tight ligation of the L5 and L6 spinal nerves. […] Rats were then treated with various doses of Compound 3099 (1, 3 and 10 mg/kg, i.p.) and paw withdrawal thresholds were tested across a period of 3 hours.
In an attempt to increase the efficacy of Compound 3099 in the SNL model, we administered a dose of 30 mg/kg (i.p.) to SNL rats. […] Further, these behaviors were also transient, such that, by the end of the testing period these effects appeared to have resolved.

In data set [1] the test system is L5/L6 SNL-induced Tactile Allodynia. As to the kind of experiment: L5/L6 SNL-induced Tactile Allodynia. Particulars: for effect on L5/L6 SNL-induced tactile allodynia (paw withdrawal thresholds): various doses; for sensitivity to non-noxious mechanical stimulation in sham-operated rats: 10 mg/kg (1045, 2616), 30 mg/kg (dPQR). It is filed as in vivo, rat. The source says: This model of neuropathic pain was developed by Kim and Chung (Kim S H, Chung J M., “An experimental model for peripheral neuropathy produced by segmental spinal nerve ligation in the rat,” Pain, 1992 September; 50(3):355-63). This model requires the ligation of the L5 and L6 spinal nerves between the spinal cord and the entry point into the sciatic nerve. Seven to fourteen days following SNL surgery rats will be reassessed for their response thresholds to mechanical stimuli. For the assessment of paw withdrawal thresholds rats were allowed to acclimate within plexiglass enclosures for approximately 20 min. A series of calibrated von Frey filaments (1.56-15.0 g, logarithmically spaced) were applied to the plantar aspect of the injured hind paw until a response was elicited. Paw withdrawal thresholds to probing were determined according to a previously described method (Chaplan S R, Bach F W, Pogrel J W, Chung J M, Yaksh T L., “Quantitative assessment of tactile allodynia in the rat paw,” J Neurosci Methods, 1994 July;53(1):55-63). Paw withdrawal thresholds were determined to the nearest 0.1 g before surgery, then before and at multiple time points following compound administration. A significant reduction in the paw withdrawal threshold was interpreted as the presence of tactile allodynia.
In order to study the endogenous activity of the NPFF system following injury to peripheral nerves, the activity of a FF1 receptor antagonist, dPQR, was assessed in a model of neuropathic pain. In this model, the L5 and L6 spinal nerves between the spinal cord and the entry point into the sciatic nerve were ligated (Kim & Chung, 1992). Seven to fourteen days following SNL surgery rats were reassessed for their response thresholds to mechanical stimuli. For the assessment of paw withdrawal thresholds rats were allowed to acclimate within plexiglass enclosures for approximately 20 min. A series of calibrated von Frey filaments (1.56-15.0 g, logarithmically spaced) were applied to the plantar aspect of the injured hind paw until a response was elicited. Paw withdrawal thresholds to probing were determined according to a previously described method (Chaplan et al., 1994). Paw withdrawal thresholds were determined to the nearest 0.1 g before surgery, then before and at multiple time points following compound administration. A significant reduction in the paw withdrawal threshold was interpreted as the presence of tactile allodynia.
A model of neuropathic pain was created in rats by tight ligation of the L5 and L6 spinal nerves. […] Rats were then treated with various doses of Compound 1045 (1, 3 and 10 mg/kg, i.p.) and paw withdrawal thresholds were tested across a period of 2 hours.

The target in data set [2] is T2, NPFF1 (Homo sapiens, UniProt Q9GZQ6). The data set can be described thus: cAMP assay in transiently transfected HEK-T cells, NPFF1. The class given is cell-based. On the set-up: expressed in transfected cells. Particulars: for Emax: HEK-T cell, read-out: NPFF1 % Efficacy Mean; for EC50: read-out: NPFF1 pEC50 Mean (converted). The text has this: An assay was established for measuring cAMP in transiently transfected cells that takes advantage of the fact that most cells that are transfected with one gene, can be simultaneously transfected with other genes. Thus, the NPFF1 and NPFF2 receptors were transfected along with a Gs-coupled receptor (EP2) at a ratio of 5:1. […] Improvement was also detected in the sensitivity of the assay in some cases when cells are co-transfected with AC5 at ½-⅕ of the amount of DNA of the Gi-coupled receptor studied.
This set up was routinely used for the transfection of HEK-T cells with NPFF1 and NPFF2 receptors. After 48 hours the cAMP assay was set up using DiscoveRx assay protocol with transfected cells in suspension in the presence of varying concentrations of the NPFF ligands and 300 nM of […] in white bottom plates. Cells were incubated for 15 minutes at 37° C. At the end of incubation, cells were lysed and the remainder of the assay performed as per DiscoveRx protocol.
Cells were incubated for another 15 minutes at 37° C. following which the cells were lysed and processed as per kit protocol.
For orientation: Changes in cAMP serve as a functional read-out for many G protein-coupled receptors.

Data set [3] has as its target T2, NPFF1. As to the kind of experiment: Receptor Selection and Amplification Technology (R-SAT) functional assay, NPFF1. It is filed as cell-based. On the set-up: expressed in transfected cells; host or cells: NIH3T3. The settings on record: for NPFF1 % Efficacy Mean: Hydrochloride. The procedure, abridged:
as §1

Where [4] appears, read: NPFF2b pEC50 Mean, R-SAT data, Table 2, multiple entries = different batches.
[5] abbreviates: R-SAT data, Table 2, multiple entries = different batches.
The mark [6] stands for this setting: R-SAT data, Table 2, multiple entries = different batches, read-out: NPFF2b % Efficacy Mean.
The mark [7] stands for this setting: cAMP data, Table 2, HEK-T cells.
The mark [8] stands for this setting: R-SAT data, Table 2, multiple entries = different batches, read-out: NPFF1 % Efficacy Mean.
Setting [9] is: R-SAT, Table 1, Efficacy is relative to endogenous ligand, read-out: NPFF2 % Efficacy.
Where [10] appears, read: R-SAT, Table 1, Efficacy is relative to endogenous ligand, read-out: NPFF1 % Efficacy.

Where “and” joins values, the source holds several entries; their conditions need not be identical. Equal entries are not always repeated. Entries after “also recorded” stand apart in the source; their conditions may differ. Structures can show the parent of a compound that is named as a salt. Where two headings read alike, the source gives them in different places.

T1 sequence (Q9Y5X5 103-522): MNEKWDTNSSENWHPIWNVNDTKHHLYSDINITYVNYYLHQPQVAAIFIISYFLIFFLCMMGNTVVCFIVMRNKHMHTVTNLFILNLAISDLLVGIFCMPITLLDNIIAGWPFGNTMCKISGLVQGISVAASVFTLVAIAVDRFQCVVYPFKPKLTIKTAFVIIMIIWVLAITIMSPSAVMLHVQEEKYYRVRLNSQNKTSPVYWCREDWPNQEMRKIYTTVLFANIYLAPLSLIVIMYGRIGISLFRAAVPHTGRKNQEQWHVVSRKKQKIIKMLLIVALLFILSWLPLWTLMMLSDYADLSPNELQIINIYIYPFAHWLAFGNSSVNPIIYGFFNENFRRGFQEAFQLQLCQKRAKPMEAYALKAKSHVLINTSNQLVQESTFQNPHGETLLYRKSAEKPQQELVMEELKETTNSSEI
T2 sequence (Q9GZQ6 whole entry, species assumed): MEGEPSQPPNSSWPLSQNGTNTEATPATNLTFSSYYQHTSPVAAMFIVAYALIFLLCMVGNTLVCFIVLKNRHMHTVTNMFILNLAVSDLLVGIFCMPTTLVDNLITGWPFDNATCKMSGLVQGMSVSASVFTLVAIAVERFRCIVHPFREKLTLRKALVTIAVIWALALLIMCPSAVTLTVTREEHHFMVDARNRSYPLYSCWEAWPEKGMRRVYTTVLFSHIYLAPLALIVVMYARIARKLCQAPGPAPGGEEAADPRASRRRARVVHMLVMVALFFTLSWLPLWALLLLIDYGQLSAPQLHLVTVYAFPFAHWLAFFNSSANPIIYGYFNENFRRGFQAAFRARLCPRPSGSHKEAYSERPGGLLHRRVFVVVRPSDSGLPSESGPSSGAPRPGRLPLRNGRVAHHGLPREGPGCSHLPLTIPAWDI

For the compound `NC(N)=NN=Cc1ccc(-c2ccccc2C(F)(F)F)o1` (racemic) [Compound 2616, 1-[(5-(2-(Trifluoromethyl)phenyl)-furan-2-yl)-methyleneamino]guanidine Hydrochloride], the EC50 is 100 nM on NPFF2 (setting [4]); 1.26 µM at NPFF1 [2] (setting [7]); 39.8 nM on NPFF1 [3]; 1260 nM and 316 nM at NPFF1 [3] (R-SAT data, Table 2, multiple entries = different batches, read-out: NPFF1 pEC50 Mean (converted)). Further, the “NPFF2b % Efficacy Mean” value on NPFF2 (setting [5]) was 80.4% and 72.9%. The Emax worked out at 63% on NPFF2 (setting [6]), 93% on NPFF1 [2] and 55% on NPFF1 [3] (setting [8]). Moreover, the “side effects at doses less than 10 mg/kg” value with rats (rat, in vivo) is given as “not observed”. Further, the “duration of side effects” value in the data set on rats (rat, in vivo, ip, 10 mg/kg) lay within 60 to 90 min. For the same compound, the side effects observed entry in the data set with rats (rat, in vivo, ip, 10 mg/kg) was “demonstrated writhing behavior and appeared lethargic”. Also, in data set [1] (SNL rats, i.p., Hydrochloride), the “effect on L5/L6 SNL-induced tactile allodynia (paw withdrawal thresholds)” value is on record as “either demonstrate very little efficacy or potentiate tactile allodynia; also recorded: dose-related potentiation of tactile allodynia”. The “sensitivity to non-noxious mechanical stimulation in sham-operated rats” value in data set [1] (i.p., Hydrochloride) was “produced tactile allodynia in sham-operated rats; also recorded: significant reduction in the paw withdrawal thresholds of sham-operated rats”. In addition, the “NPFF1 % Efficacy Mean” value at NPFF1 [3] (setting [5]) is 66.3% and 52.1%.
Consider `NC(N)=N/N=C/c1ccc(Cl)c(Cl)c1` [Compound 1045, 1-(3,4-Dichlorobenzylideneamino)guanidine Hydrochloride], for which the EC50 at NPFF2 (setting [4]) was 794 nM and 501 nM; on NPFF2 (NPFF2 pEC50, R-SAT, Table 1, NA = No activity detectable at the highest dose tested (20 μM)) it was 794 nM. Moreover, on NPFF2 (setting [5]), the “NPFF2b % Efficacy Mean” value stood at 55.2%. The Emax at NPFF2 (setting [6]) is 63.8%; on NPFF2 (setting [9]), 64%; at NPFF1 [3] (setting [8]), 6.3%; on NPFF1 [3] (setting [10]) it was 17%. Moreover, in the data set on rats (SNL rats, 30 mg/kg), the “duration of side effects” value fell in the range of 60 to 90 min. In addition, the “side effects at doses less than 10 mg/kg” value in the data set on rats (rat, in vivo) is reported as “not observed”. The “new side effects noted” value in the data set with rats (rat, in vivo, 30 mg/kg) is “ptosis, shuffling/stomping and biting of forlimbs and hindlimbs”. Also, the side effects observed result with rats (rat, in vivo, ip, 10 mg/kg) was “demonstrated writhing behavior and appeared lethargic”. Moreover, the “efficacy against SNL-induced tactile allodynia at 30 mg/kg” value in data set [1] (SNL rats, 30 mg/kg) is given as “initially efficacious at the 30 min time-point”. Moreover, the “paw withdrawal thresholds by 60 min and until the end of the testing session” value in data set [1] (SNL rats, 30 mg/kg, suggests potentiation of tactile allodynia) was “significantly reduced the paw withdrawal thresholds to levels below those obtained in SNL vehicle-treated rats”. Further, in data set [1] (SNL rats, i.p.), the “maximum efficacy, reversal of tactile allodynia” value is given as 37.9%. Besides, the “sensitivity to non-noxious mechanical stimulation in sham-operated rats” value in data set [1] (i.p.) is “did not significantly alter sensitivity to non-noxious mechanical stimulation”.
For the compound `Cl.N=C(N)N/N=C/c1ccc(Br)c(Br)c1` [Compound 3093, 1-(3,4-Dibromobenzylideneamino)guanidine Hydrochloride], at NPFF2 (setting [5]), the “NPFF2b % Efficacy Mean” value came out at 89.9%. Moreover, the Emax at NPFF2 (setting [6]) was found to be 85.3%; on NPFF2 (setting [9]) it was 89%; at NPFF1 [2] (setting [7]), 23%; at NPFF1 [3] (setting [8]) it was 10.2%; at NPFF1 [3] (setting [10]) it was 11%. The EC50 at NPFF2 (R-SAT data, Table 2, multiple entries = different batches, read-out: NPFF2b pEC50 Mean (converted)) is 631 nM and 1260 nM; at NPFF2 (R-SAT, Table 1, NA = No activity detectable at the highest dose tested (20 μM), read-out: NPFF2 pEC50 (converted)), 1580 nM; at NPFF1 [2] (setting [7]) it was 15.8 µM. In the data set with rats (rat, in vivo, ip, 30 mg/kg), the “behaviors observed (typically precede barrel-rolling seizures)” value was “immobility and staring, ataxia, splayed hind limbs, body swaying, lying on one side with spastic limb abduction and body distortions”. Also, the “time of peak effect after administration” value in data set [1] (SNL rats, i.p.) stood at 30 min. The “effect on L5/L6 SNL-induced tactile allodynia (paw withdrawal thresholds)” value in data set [1] (SNL rats, i.p., Hydrochloride) was “dose-dependently reverse tactile allodynia; also recorded: dose-related reversal of tactile allodynia”. In addition, the “calculated A50, reversal of tactile allodynia” value in data set [1] (SNL rats, i.p., 95% CI) is reported as 6.2 mg. Also, on NPFF1 [3] (setting [5]), the “NPFF1 % Efficacy Mean” value came out at 11.7%.
